In patent publication US8222218B2, “Cyclopropanated carbohydrates” (Seton Hall University, priority 2008, dated 2012):
Read-outs that look alike come from different tables or passages of the source.

Legend:
[1] = tested on: MES-induced seizures; assay: Maximal Electroshock Seizure (MES) test, mice; format: in vivo; settings: mice, i.p.; for responders at 30 mg/kg / responders at 100 mg/kg / responders at 300 mg/kg: Mus musculus, ip
From the text: (§1) The MES test is a model for generalized tonic-clonic seizures. The seizures are highly reproducible and electrophysiologically consistent with human seizures. The test provides information about a compound's ability to prevent the spread of seizure when all neuronal circuits of the brain are maximally active. 60 Hz of alternating current (50 mA in mice, 150 mA in rats) is applied for 2 seconds via corneal electrodes that have been treated with an electrolyte solution containing an anesthetic (0.5% tetracaine HCl). Mice are tested at a variety of intervals after an i.p. injection of […] solution of the test compound (commonly in a 0.5% solution of methylcellulose) at 30, 100, and 300 mg/kg doses. Rats are examined after a 30 mg/kg (per os, p.o.) dose that is applied in a volume of 0.04 mL/g. An animal is considered “protected” from MES-induced seizures upon removal of the hind limb extensor component of the seizure.
(§2) Male and female albino CF1 mice (18-25 g, Charles River, Portage, Mich.) and male albino Sprague-Dawley rats (275-300 g, kindling test; 100-150 g all other tests; Charles River, Raleigh, N.C.) were used as experimental animals.

[2] = tested on: metrazole-induced clonic seizures; assay: Subcutaneous Metrazole Seizure Threshold Test (scMET), mice; format: in vivo; settings: mice; for responders at 30 mg/kg / responders at 100 mg/kg / responders at 300 mg/kg: Mus musculus, sc
Procedure: (§3) The subcutaneous injection of metrazole, which is a convulsant, produces clonic seizures in laboratory animals. The scMET test is designed to identify compounds that raise the seizure threshold of an animal. Mice are pretreated with test compound at 30, 100, and 300 mg/kg doses in a similar manner to the MES test. Rats are treated with a 50 mg/kg dose (p.o.). At the previously determined TPE of the test compound, the dose of metrazole that will induce convulsions in 97% of animals (CD97: 85 mg/kg mice) is injected into the loose fold of the skin in the midline of the neck. The animals are placed in isolation cages to minimize stress and observed for the next 30 minutes for the presence or absence of seizures. An episode of clonic spasms (approximately 3-5 seconds) of the fore and/or hindlimbs, jaws or vibrissae is taken as the endpoint.
as §2

[3] = Acute toxicity, minimal motor impairment (rotorod), mice; format: in vivo; settings: for TOX 30 0.5 h (animals toxic/tested) / TOX 30 4 h (animals toxic/tested) / TOX 100 0.5 h (animals toxic/tested) / TOX 100 4 h (animals toxic/tested) / TOX 300 0.5 h (animals toxic/tested) / TOX 300 4 h (animals toxic/tested): mice, rotorod; for TOX 30 0.5 h (animals toxic/tested) / TOX 30 4 h (animals toxic/tested): 30 mg/kg; for TOX 100 0.5 h (animals toxic/tested) / TOX 100 4 h (animals toxic/tested): 100 mg/kg; for TOX 300 0.5 h (animals toxic/tested) / TOX 300 4 h (animals toxic/tested): 300 mg/kg; for minimal motor impairment: at same time point / dose as observed activity
Procedure: (§4) Toxicity was measured using the minimal motor impairment test described below.
Animals are monitored for overt signs of impaired neurological or muscular function to assess a compound's toxicity. In mice, the rotorod procedure is used to disclose minimal muscular or neurological impairment. When a mouse is placed on a rotating rod (6 rpm), the animal can maintain its equilibrium for long periods of time. The animal is considered toxic if it falls off the rotating rod three times during a 1 minute period. In rats, minimal motor deficit is indicated by ataxia, which is manifested by an abnormal, uncoordinated gait.

[4] = tested on: electrically-induced psychomotor seizure (6 Hz); assay: Minimal Clonic Seizure (6 Hz) test, mice; format: in vivo; settings: i.p., 100 mg/kg
Procedure: as §4
(§5) The minimal clonic seizure (6 Hz) test, like the MES test, is used to assess a compound's ability to protect against electrically-induced seizures. The minimal clonic (6 Hz) seizure test uses a lower frequency (6 Hz) and a longer duration of stimulation (3 seconds) than the MES test. Test compounds are pre-administered to mice via i.p. injection. At varying times, individual mice (four per time point) are challenged with sufficient current via corneal electrodes to elicit a psychomotor seizure in 97% of animals (32 mA for 3 second). Untreated mice will display seizure characterized by a minimal clonic phase followed by stereotyped, automatistic behaviors described originally as being similar to the aura of human patients with partial seizures. Animals not displaying this behavior are considered to be protected.
as §2

[5] = tested on: seizures; assay: In vivo anticonvulsant screening (MES, scMET, minimal clonic seizure), summary in words; parameters: species or system rat, mouse; settings: summary of Table 2
Procedure: as §4, §1, §3, §5

[6] = 30 mg/kg, 0.5 h, read-out: MES 30 0.5 h (animals protected/tested)
[7] = 30 mg/kg, 4 h, read-out: MES 30 4 h (animals protected/tested)
[8] = 100 mg/kg, 0.5 h, read-out: MES 100 0.5 h (animals protected/tested)
[9] = 100 mg/kg, 4 h, read-out: MES 100 4 h (animals protected/tested)
[10] = 300 mg/kg, 0.5 h, read-out: MES 300 0.5 h (animals protected/tested)
[11] = 300 mg/kg, 4 h, read-out: MES 300 4 h (animals protected/tested)
[12] = 30 mg/kg, 0.4 h, read-out: scMET 30 0.4 h (animals protected/tested)
[13] = 30 mg/kg, 0.5 h, read-out: scMET 30 0.5 h (animals protected/tested)
[14] = 100 mg/kg, 0.4 h, read-out: scMET 100 0.4 h (animals protected/tested)
[15] = 100 mg/kg, 0.5 h, read-out: scMET 100 0.5 h (animals protected/tested)
[16] = 300 mg/kg, 0.4 h, read-out: scMET 300 0.4 h (animals protected/tested)
[17] = 300 mg/kg, 0.5 h, read-out: scMET 300 0.5 h (animals protected/tested)

## CCOC(=O)C1[C@@H]2[C@@H](OS(N)(=O)=O)[C@@H]3O[C@H](c4ccc(OC)cc4)OC[C@H]3O[C@H]12 (stereo partly drawn) [Compound 17b, ethyl (2R,4aR,5aS,6aS,7R,7aR)-2-(4-methoxyphenyl)-7(sulfamoyloxy)hexahydro-4H-cyclopropa[5,6]pyrano[3,2-d][1,3]dioxine-6-carboxylate]
[1]; [6]
  responders at 30 mg/kg: 0%
[1]; [7]
  responders at 30 mg/kg: 0%
[1]; [8]
  responders at 100 mg/kg: 0%
[1]; [9]
  responders at 100 mg/kg: 0%
[1]; [10]
  responders at 300 mg/kg: 0%
[1]; [11]
  responders at 300 mg/kg: 0%
[2]; [12]
  responders at 30 mg/kg: 0%
[2]; [13]
  responders at 30 mg/kg: 0%
[2]; [14]
  responders at 100 mg/kg: 0%
[2]; [15]
  responders at 100 mg/kg: 0%
[2]; [16]
  responders at 300 mg/kg: 0%
[2]; [17]
  responders at 300 mg/kg: 0%
[3]
  TOX 30 0.5 h (animals toxic/tested): 0/4
  TOX 30 4 h (animals toxic/tested): 0/2
  TOX 100 0.5 h (animals toxic/tested): 0/8
  TOX 100 4 h (animals toxic/tested): 0/4
  TOX 300 0.5 h (animals toxic/tested): 2/4
  TOX 300 4 h (animals toxic/tested): 0/2
[4]
  6 Hz 100 0.25 h (animals protected/tested): 0/4
  6 Hz 100 0.5 h (animals protected/tested): 1/4
  6 Hz 100 2 h (animals protected/tested): 1/4
[5]
  anticonvulsant activity: anticonvulsant activity

## CCOC(=O)C1[C@@H]2[C@@H](O)[C@@H]3O[C@H](c4ccc(C(C)C)cc4)OC[C@H]3O[C@H]12 (stereo partly drawn) [Compound 20b, Ethyl (2R,4aR,5aS,6aR,7R,7aS)-7-hydroxy-2-[4-(propan-2-yl)phenyl]hexahydro-4H-cyclopropa[5.6]pyrano[3,2-d][1,3]dioxine-6-carboxylate]
[1]; 30 mg/kg, 0.5 h
  MES 30 0.5 h (animals protected/tested): 1/5
[1]; 30 mg/kg, 4 h
  MES 30 4 h (animals protected/tested): 0/1
[1]; 100 mg/kg, 0.5 h
  MES 100 0.5 h (animals protected/tested): 0/7
[1]; 100 mg/kg, 4 h
  MES 100 4 h (animals protected/tested): 0/3
[1]; 300 mg/kg, 0.5 h
  MES 300 0.5 h (animals protected/tested): 0/1
[1]; 300 mg/kg, 4 h
  MES 300 4 h (animals protected/tested): 0/1
[2]; 30 mg/kg, 0.4 h
  scMET 30 0.4 h (animals protected/tested): 0/1
[2]; 30 mg/kg, 0.5 h
  scMET 30 0.5 h (animals protected/tested): 0/1
[2]; 100 mg/kg, 0.4 h
  scMET 100 0.4 h (animals protected/tested): 0/1
[2]; 100 mg/kg, 0.5 h
  scMET 100 0.5 h (animals protected/tested): 0/1
[2]; 300 mg/kg, 0.4 h
  scMET 300 0.4 h (animals protected/tested): 0/1
[2]; 300 mg/kg, 0.5 h
  scMET 300 0.5 h (animals protected/tested): 0/1
[3]
  minimal motor impairment: minimal motor impairment at the same time point
  TOX 30 0.5 h (animals toxic/tested): 1/4
  TOX 30 4 h (animals toxic/tested): 0/2
  TOX 100 0.5 h (animals toxic/tested): 0/8
  TOX 100 4 h (animals toxic/tested): 0/4
  TOX 300 0.5 h (animals toxic/tested): 0/4
  TOX 300 4 h (animals toxic/tested): 0/2
[5]
  anticonvulsant activity: showed activity

## CCOC(=O)C1[C@@H]2[C@@H](O)[C@@H]3O[C@H](c4ccc(F)cc4F)OC[C@H]3O[C@H]12 (stereo partly drawn) [Compound 20d, Ethyl (2R,4aR,5aS,6aR,7R,7aS)-2-(2,4-difluorophenyl)-7-hydroxyhexahydro-4H-cyclopropa[5,6]pyrano[3,2-d][1,3]dioxine-6-carboxylate]
[1]; [6]
  responders at 30 mg/kg: 0%
[1]; [7]
  responders at 30 mg/kg: 0%
[1]; [8]
  responders at 100 mg/kg: 0%
[1]; [9]
  responders at 100 mg/kg: 0%
[1]; [10]
  responders at 300 mg/kg: 0%
[1]; [11]
  responders at 300 mg/kg: 0%
[2]; [12]
  responders at 30 mg/kg: 0%
[2]; [13]
  responders at 30 mg/kg: 0%
[2]; [14]
  responders at 100 mg/kg: 0%
[2]; [15]
  responders at 100 mg/kg: 0%
[2]; [16]
  responders at 300 mg/kg: 0%
[2]; [17]
  responders at 300 mg/kg: 0%
[3]
  minimal motor impairment: minimal motor impairment at the same dose
  TOX 30 0.5 h (animals toxic/tested): 1/4
  TOX 30 4 h (animals toxic/tested): 0/2
  TOX 100 0.5 h (animals toxic/tested): 1/8
  TOX 100 4 h (animals toxic/tested): 0/4
  TOX 300 0.5 h (animals toxic/tested): 2/4
  TOX 300 4 h (animals toxic/tested): 1/2
[4]
  6 Hz 100 0.25 h (animals protected/tested): 1/4
  6 Hz 100 0.5 h (animals protected/tested): 0/4
  6 Hz 100 2 h (animals protected/tested): 0/4
[5]
  anticonvulsant activity: exhibited activity
